From publication PMC7893776, “Selecting an anti-malarial clinical candidate from two potent dihydroisoquinolones” (Malaria Journal, 2021)
Values joined by “and” are separate entries in the source; they are usually repeats but may differ in a detail not shown here. Equal values may be shown once. Read-outs that look alike come from different tables or passages of the source.

Key:
[1] = Mouse plasma pharmacokinetics, single PO or IV dose; assay type: in vivo, female C57BL/6 mice; conditions: for AUCinf / CL/F / Cmax / Half-life / Tmax / V/F / CL / Vss: mouse plasma; for bioavailability: po, read-out: Mouse F (oral bioavailability)
Source text: Studies were undertaken to determine the plasma pharmacokinetics of SJ733 and SJ311. These studies included: (i) single oral gavage (PO) or intravenous (IV) dose administration to female C57BL/6 mice; (ii) single PO or IV dose administration to male Sprague Dawley (SD) rats; (iii) single PO or IV dose administration to male beagle dogs; (iv) toxicokinetic (TK) study following single PO administration to male SD rats. The PO and IV formulation used for mouse studies at SJCRH was 1% hydroxypropyl-beta-cyclodextrin (w/v), 10% ethanol (v/v), 10% propylene glycol (v/v), 40% PEG-400 (v/v) and 39% PBS (pH 7.4) isotonic (v/v). Compounds were dosed orally as suspensions, and intravenously as filtered solutions. Compound concentrations were confirmed post filtration using UV spectroscopy. The IV formulation used for rat studies (Monash University) was the same as that used for mice. For PO dosing to rats (Monash University) at 2 mg/kg, a suspension formulation was used containing 0.5% (w/v) hydroxypropyl methylcellulose, 0.5% (v/v) benzyl alcohol and 0.4% (v/v) Tween 80. The formulation used for rat studies at SRI (PO, high dose) was the same as that used in mouse PK studies. The formulation for the high dose TK study at SRI was 0.5% methylcellulose in sterile water. The formulation used for dog studies was the same as that used in mouse PK studies. The PO and IV PK of SJ733 and SJ311 were studied in female C57BL/6 mice. Mice had access to water and food ad libitum throughout the pre- and post-dose sampling period. Doses were administered at 15 mg/kg for IV and 10–200 mg/kg for PO with 20 mice in each dosage group. Two samples were taken from each mouse, with the first sample being a retro-orbital bleed (~ 200 µL) at the indicated time point (5, 15, 30 min, 1, 4, 24 h) and the second being terminal cardiac puncture (~ 500 µL) at the indicated time point (usually 48 h). EDTA disodium was used as anticoagulant and added to whole blood (10% volume of EDTA for 1% w/v final concentration) followed by centrifugation at 13,000 rpm for 2 min. Plasma was collected and stored frozen at -20 °C until analysis. For studies at SJCRH, all blood samples were kept on wet ice after collection and processed to plasma within 30 min of collection. Plasma samples were kept on dry ice and transferred to ≤ − 20 °C until analysis. Mouse plasma samples were extracted via protein precipitation with cold acetonitrile. The detection of the SJ733, SJ311, and warfarin (IS) was conducted by LC–MS with SIR or LC–MS/MS with MRM detection. Aliquots (3 µL) were injected onto a Waters Acquity UPLC equipped with an ABI Sciex 6500 Qtrap MS/MS and separated using an Acquity BEH C18 column (50 × 2.1 mm, 1.7 µm) with a methanol–water gradient containing 0.1% formic acid. Plasma concentration time (Ct) data for SJ733 and SJ311 were grouped by nominal time point, and the mean Ct values were subjected to noncompartmental analysis (NCA) using Phoenix WinNonlin 8.1 (Certara USA, Inc., Princeton, NJ). For all experiments, the area under the Ct and first moment curves (AUC, AUMC) were estimated using the “linear up log down” method. The terminal phase was defined as at least three time points at the end of the Ct profile, and the elimination rate constant (Kel) was estimated using an unweighted log-linear regression of the terminal phase. The terminal elimination half-life (T1/2) was estimated as 0.693/Kel, and the AUC from time 0 to infinity ([…]) was estimated as the AUC to the last time point (AUClast) + Clast (predicted)/Kel with the […] similarly calculated. Additional parameters estimated included observed maximum concentration (Cmax), time of Cmax (Tmax), concentration at the last observed time point (Clast), time of Clast (Tlast), and the apparent oral terminal volume of distribution (V/F). The apparent oral clearance (CL/F), systemic clearance (CL) and volume of distribution at steady state (Vss) were all estimated using standard formulae [19].

[2] = target: T1, CYP2C9 (Homo sapiens, UniProt P11712); experiment: CYP450 inhibition, CYP2C9; assay type: in vitro ADME; conditions: for inhibition of CYP2C9: 10 µM, probe substrate Diclofenac, replicate measurements
T1 construct: purchased Cypex Ltd (Bactosomes)
Experimental: SJ733 was first pre-incubated with Bactosomes™ (Cypex Ltd, final P450 concentration: CYP1A1 25 pmol/mL, CYP1A2 100 pmol/mL,CYP1B1 100 pmol/mL, CYP2B6 100 pmol/mL, CYP2C8 50 pmol/mL, CYP2C9, 25 pmol/mL, CYP2C19 100 pmol/mL, CYP2D6 50 pmol/mL and CYP3A4 25 pmol/mL, 0.1 M phosphate buffer pH 7.4) at 37 °C prior to the addition of NADPH (final concentration 1 mM) to initiate the reaction with a final incubation volume of 50 μL. Incubations were also performed using control Bactosomes™ (no P450 enzymes present) to reveal any non-enzymatic degradation. Control compounds known to be metabolized specifically by each P450 isoform were included individually. Test articles and controls were incubated with each isoform for 0, 5, 15, 30, and 45 min. The reactions were stopped by transferring 20 μL of the reaction mixture to 60 μL methanol at the appropriate timepoints.
In an alternate approach SJ311 was studied using a validated cocktail probe substrate method. […] All samples were analyzed using LC MS/MS, with either positive atmospheric pressure chemical ionization (APCI) mode (SJ311) or ESI (SJ733) mode utilizing multiple reaction monitoring (MRM) scans.

[3] = target: T2, CYP2D6 (Homo sapiens, UniProt P10635); experiment: CYP450 inhibition, CYP2D6; assay type: in vitro ADME; conditions: for inhibition of CYP2D6: 10 µM, probe substrate Bufuralol, replicate measurements
T2 construct: purchased Cypex Ltd (Bactosomes)

[4] = mouse, single PO 100 mg/kg vs IV
[5] = female, C57BL/6, mouse, plasma, mouse, summary over the oral doses studied
[6] = female, C57BL/6, single IV 15 mg/kg, read-out: Half-life

T1 sequence (P11712 whole entry): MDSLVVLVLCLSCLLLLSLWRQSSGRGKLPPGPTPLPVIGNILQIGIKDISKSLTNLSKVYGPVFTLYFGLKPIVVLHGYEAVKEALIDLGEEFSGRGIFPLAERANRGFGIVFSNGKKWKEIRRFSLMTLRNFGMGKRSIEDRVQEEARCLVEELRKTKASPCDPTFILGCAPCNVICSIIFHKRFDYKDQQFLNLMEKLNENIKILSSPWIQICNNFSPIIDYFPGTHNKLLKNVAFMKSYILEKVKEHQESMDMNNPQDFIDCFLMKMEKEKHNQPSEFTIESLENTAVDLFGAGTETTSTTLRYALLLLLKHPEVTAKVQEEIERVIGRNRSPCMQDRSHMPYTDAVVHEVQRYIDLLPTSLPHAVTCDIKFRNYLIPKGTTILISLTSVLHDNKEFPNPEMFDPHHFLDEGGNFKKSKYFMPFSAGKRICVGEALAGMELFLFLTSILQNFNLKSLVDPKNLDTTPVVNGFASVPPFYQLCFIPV
T2 sequence (P10635 whole entry): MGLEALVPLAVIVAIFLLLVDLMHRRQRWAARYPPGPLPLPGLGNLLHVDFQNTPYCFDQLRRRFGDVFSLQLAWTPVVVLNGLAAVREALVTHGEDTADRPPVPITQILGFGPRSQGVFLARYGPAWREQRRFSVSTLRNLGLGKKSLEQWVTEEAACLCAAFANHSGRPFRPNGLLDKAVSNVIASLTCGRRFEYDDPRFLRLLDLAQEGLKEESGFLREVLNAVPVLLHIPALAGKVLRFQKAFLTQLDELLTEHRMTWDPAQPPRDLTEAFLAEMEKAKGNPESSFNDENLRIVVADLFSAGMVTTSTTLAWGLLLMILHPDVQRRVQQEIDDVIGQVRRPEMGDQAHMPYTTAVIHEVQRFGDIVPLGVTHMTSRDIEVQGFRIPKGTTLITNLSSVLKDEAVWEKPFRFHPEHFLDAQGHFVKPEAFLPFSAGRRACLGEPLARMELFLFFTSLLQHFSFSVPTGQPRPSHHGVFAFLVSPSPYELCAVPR

SMILES | AUCinf ([1]; single PO 100 mg/kg) | CL/F ([1]; single PO 100 mg/kg) | Cmax ([1]; single PO 100 mg/kg) | Half-life ([1]; single PO 100 mg/kg) | Tmax ([1]; single PO 100 mg/kg) | F [1, 4] | inhibition of CYP2C9 [2] | inhibition of CYP2D6 [3] | AUCinf ([1]; single IV 15 mg/kg) | CL ([1]; single IV 15 mg/kg) | Cmax ([1]; single IV 15 mg/kg) | Half-life ([1]; single IV 15 mg/kg) | Vss ([1]; single IV 15 mg/kg) | CYP2C9 inhibition, in words [2] | CYP2D6 inhibition, in words [3] | bioavailability [1, 5] | Half-life [1, 6] | other results
N#Cc1cc(NC(=O)[C@H]2c3ccccc3C(=O)N(CC(F)(F)F)[C@@H]2c2cccnc2)ccc1F [(+)-SJ733] | 53 µM·h | 67 mL/min/kg | 11.7 ± 1.2 µM | 3.17 h | 0.5 h | 80.8% | – | – | – | – | – | – | – | – | – | – | – | AUCinf ([1]; single PO 10 mg/kg): 4.27 µM·h; CL/F ([1]; single PO 10 mg/kg): 83.3 mL/min/kg; Cmax ([1]; single PO 10 mg/kg): 1.38 ± 0.21 µM; Half-life ([1]; single PO 10 mg/kg): 3.63 h; Tmax ([1]; single PO 10 mg/kg): 0.5 h; V/F ([1]; single PO 10 mg/kg): 26.2 L/kg; F ([1]; mouse, single PO 10 mg/kg vs IV): 65%
N#Cc1cc(NC(=O)C2c3ccccc3C(=O)N(CC(F)(F)F)C2c2cn[nH]c2)ccc1F (racemic) [(r)-SJ311] | 42 µM·h | 89 mL/min/kg | 10.5 ± 5.3 µM | 4.20 h | 0.5 h | 23.1% | 19% and 15% | 11% | 20.7 µM·h | 27.2 mL/min/kg | 13.4 µM | 1.56 h | 2.11 L/kg | – | – | – | – | V/F ([1]; single PO 100 mg/kg): 32.4 L/kg
N#Cc1cc(NC(=O)[C@H]2c3ccccc3C(=O)N(CC(F)(F)F)[C@@H]2c2cn[nH]c2)ccc1F [SJ311] | – | – | – | – | – | – | – | – | – | – | – | – | – | weak inhibitors | weak inhibitors | 22 to 23% | 1.38 to 1.56 h | Mouse F (oral bioavailability) ([1]; mouse, summary over the oral doses studied): 23%
N#Cc1cc(NC(=O)[C@H]2c3ccccc3C(=O)N(CC(F)(F)F)[C@@H]2c2cccnc2)ccc1F (racemic) [SJ733] | – | – | – | – | – | – | – | – | – | – | – | – | – | weak inhibitors | weak inhibitors | 65 to 81% | 1.38 to 1.65 h | clearance ([1]; female, C57BL/6, mouse, plasma, observed in mice, read-out: in vivo clearance (converted)): ~50 mL/min/kg
N#Cc1cc(NC(=O)C2c3ccccc3C(=O)N(CC(F)(F)F)C2c2cccnc2)ccc1F (racemic) [(r)-SJ733] | – | – | – | – | – | – | 34% and 17% | 7% and 9% | 10.8 µM·h | 49.7 mL/min/kg | 11.3 µM | 1.52 h | 2.41 L/kg | – | – | – | – | AUCinf ([1]; single PO 50 mg/kg): 28 µM·h; CL/F ([1]; single PO 50 mg/kg): 67 mL/min/kg; Cmax ([1]; single PO 50 mg/kg): 10.1 ± 4.5 µM; Half-life ([1]; single PO 50 mg/kg): 1.72 h; Tmax ([1]; single PO 50 mg/kg): 0.5 h; AUCinf ([1]; single PO 200 mg/kg): 155.7 µM·h; CL/F ([1]; single PO 200 mg/kg): 54.2 mL/min/kg; Cmax ([1]; single PO 200 mg/kg): 12.7 ± 3.2 µM; Half-life ([1]; single PO 200 mg/kg): 14.1 h; Tmax ([1]; single PO 200 mg/kg): 5 h; V/F ([1]; single PO 200 mg/kg): 3.23 L/kg; F ([1]; mouse, single PO 50 mg/kg vs IV): 70%; F ([1]; mouse, single PO 200 mg/kg vs IV): 98%
